Consider 32 compounds from patent US9452986B2, “6-heteroaryloxy- or 6-aryloxy-quinoline-2-carboxamides and method of use” (AbbVie Inc., priority 2014, dated 2016).

recombinant human Nav1.7, sequence (Q15858 whole entry): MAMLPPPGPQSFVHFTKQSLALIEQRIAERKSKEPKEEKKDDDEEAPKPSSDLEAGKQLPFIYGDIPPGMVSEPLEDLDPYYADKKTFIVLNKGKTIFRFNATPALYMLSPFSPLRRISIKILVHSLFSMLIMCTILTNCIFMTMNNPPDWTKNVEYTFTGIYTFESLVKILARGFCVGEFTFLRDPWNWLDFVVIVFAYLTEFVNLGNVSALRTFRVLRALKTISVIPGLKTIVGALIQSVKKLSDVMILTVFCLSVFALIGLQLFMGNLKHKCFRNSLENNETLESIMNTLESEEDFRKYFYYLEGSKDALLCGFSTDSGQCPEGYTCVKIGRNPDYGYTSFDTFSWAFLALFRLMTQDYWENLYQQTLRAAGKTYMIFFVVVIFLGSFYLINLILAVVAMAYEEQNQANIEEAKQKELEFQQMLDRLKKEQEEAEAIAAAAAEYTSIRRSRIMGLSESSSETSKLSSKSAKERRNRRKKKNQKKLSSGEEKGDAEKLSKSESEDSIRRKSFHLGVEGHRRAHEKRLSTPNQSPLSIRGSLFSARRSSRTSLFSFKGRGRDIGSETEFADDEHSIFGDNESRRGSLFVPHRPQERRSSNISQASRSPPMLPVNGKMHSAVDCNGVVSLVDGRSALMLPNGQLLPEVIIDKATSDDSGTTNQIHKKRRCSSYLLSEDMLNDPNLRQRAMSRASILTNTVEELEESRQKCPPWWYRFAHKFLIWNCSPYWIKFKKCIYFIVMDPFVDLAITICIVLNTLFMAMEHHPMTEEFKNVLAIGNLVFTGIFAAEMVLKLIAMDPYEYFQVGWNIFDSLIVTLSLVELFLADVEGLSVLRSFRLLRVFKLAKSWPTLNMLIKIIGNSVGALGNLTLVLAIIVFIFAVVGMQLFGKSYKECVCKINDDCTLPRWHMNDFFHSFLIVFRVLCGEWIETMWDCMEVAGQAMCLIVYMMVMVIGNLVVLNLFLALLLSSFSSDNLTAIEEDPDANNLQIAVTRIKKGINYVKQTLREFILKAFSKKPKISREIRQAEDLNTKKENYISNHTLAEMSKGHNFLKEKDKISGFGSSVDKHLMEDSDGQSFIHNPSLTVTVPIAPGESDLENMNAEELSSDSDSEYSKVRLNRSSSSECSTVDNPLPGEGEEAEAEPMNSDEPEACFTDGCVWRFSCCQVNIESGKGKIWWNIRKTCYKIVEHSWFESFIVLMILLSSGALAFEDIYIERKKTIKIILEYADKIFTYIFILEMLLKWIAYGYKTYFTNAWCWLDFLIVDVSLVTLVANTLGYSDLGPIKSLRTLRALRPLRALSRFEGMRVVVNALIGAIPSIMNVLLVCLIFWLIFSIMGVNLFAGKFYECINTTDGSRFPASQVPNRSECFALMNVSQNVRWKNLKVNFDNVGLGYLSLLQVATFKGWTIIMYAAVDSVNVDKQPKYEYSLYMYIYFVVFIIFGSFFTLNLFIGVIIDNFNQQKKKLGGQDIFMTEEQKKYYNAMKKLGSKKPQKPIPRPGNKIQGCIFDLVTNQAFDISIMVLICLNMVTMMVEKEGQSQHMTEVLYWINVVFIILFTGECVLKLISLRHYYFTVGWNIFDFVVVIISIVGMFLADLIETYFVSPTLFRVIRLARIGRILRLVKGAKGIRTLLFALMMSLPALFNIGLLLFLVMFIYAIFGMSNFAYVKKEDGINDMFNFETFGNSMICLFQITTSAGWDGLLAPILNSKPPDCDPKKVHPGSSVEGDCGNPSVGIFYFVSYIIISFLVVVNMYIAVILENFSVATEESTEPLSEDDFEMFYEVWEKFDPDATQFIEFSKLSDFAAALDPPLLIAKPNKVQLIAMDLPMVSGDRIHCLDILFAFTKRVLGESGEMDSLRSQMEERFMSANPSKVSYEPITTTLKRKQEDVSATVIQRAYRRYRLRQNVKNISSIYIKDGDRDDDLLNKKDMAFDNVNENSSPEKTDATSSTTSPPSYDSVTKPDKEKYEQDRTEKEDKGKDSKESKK

The first experiment has as its target recombinant human Nav1.7 (Homo sapiens (Human), UniProt Q15858). Put plainly: FRET-based membrane potential assay, recombinant human sodium channel Nav1.7. It counts as cell-based. The conditions noted are these: FRET-Membrane Potential Nav1.7 IC50. A digest of the protocol: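 Channel activation used veratridine at its EC80, set by a dilution curve each experiment, together with Leiurus scorpion venom, added 3 min after compound. Membrane-potential ratio signals from FLIPR Tetra in HEPES-buffered HBSS were fitted to a four-parameter Hill equation for percent inhibition and IC50.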
Broadly, the IC50 is the concentration at which inhibition is half-maximal. For the compound `O=C(c1ccc2cc(Oc3ccc(C(F)(F)F)nc3)ccc2n1)N1C[C@@H](O)[C@@H](O)C1` [Example 546, [cis-3,4-dihydroxypyrrolidin-1-yl](6-{[6-(trifluoromethyl)pyridin-3-yl]oxy}quinolin-2-yl)methanone], the IC50 was determined as 10.1 µM.

The experiment is the same for the next values; noted with them: HEK293 cells stably expressing recombinant human Nav1.7; veratridine + scorpion venom depolarization; read-out: FRET-Membrane Potential Nav1.7 IC50.
For the compound `O=C(c1ccc2cc(Oc3ccc(C(F)(F)F)nc3)ccc2n1)N1CC=CC1` [Example 539, 2,5-dihydro-1H-pyrrol-1-yl(6-{[6-(trifluoromethyl)pyridin-3-yl]oxy}quinolin-2-yl)methanone], the IC50 is above 20 µM. The same measure, in the same setting: as for `COC(C)(C)CNC(=O)c1ccc2cc(Oc3ccc(C(F)(F)F)cn3)ccc2n1` [Example 541, N-(2-methoxy-2-methylpropyl)-6-{[5-(trifluoromethyl)pyridin-2-yl]oxy}quinoline-2-carboxamide], the figure is 1.19 µM. Same read-out and setting: as for `O=C(c1ccc2cc(Oc3ccc(C(F)(F)F)nc3)ccc2n1)N1CCN[C@@H](CO)C1` [Example 544, [(3R)-3-(hydroxymethyl)piperazin-1-yl](6-{[6-(trifluoromethyl)pyridin-3-yl]oxy}quinolin-2-yl)methanone], the figure is 3.45 µM; as for `O=C(c1ccc2cc(Oc3ccc(C(F)(F)F)nc3)ccc2n1)N1CCN[C@H](CO)C1` [Example 545, [(3S)-3-(hydroxymethyl)piperazin-1-yl](6-{[6-(trifluoromethyl)pyridin-3-yl]oxy}quinolin-2-yl)methanone], 3.7 µM; as for `O=C(c1ccc2cc(Oc3ccc(C(F)(F)F)nc3)ccc2n1)N1CC[C@@H](F)C1` [Example 548, [(3R)-3-fluoropyrrolidin-1-yl](6-{[6-(trifluoromethyl)pyridin-3-yl]oxy}quinolin-2-yl)methanone], 4.05 µM. For the compound `C[C@H]1CN(C(=O)c2ccc3cc(Oc4ccc(C(F)(F)F)nc4)ccc3n2)CCN1` [Example 549, [(3S)-3-methylpiperazin-1-yl](6-{[6-(trifluoromethyl)pyridin-3-yl]oxy}quinolin-2-yl)methanone], the half-inhibitory concentration (IC50) amounted to 2.49 µM.

For `O=C(c1ccc2cc(Oc3ccc(C(F)(F)F)nc3)ccc2n1)N1CC[C@H](F)C1` [Example 550, [(3S)-3-fluoropyrrolidin-1-yl](6-{[6-(trifluoromethyl)pyridin-3-yl]oxy}quinolin-2-yl)methanone], the IC50 was determined as 10.7 µM. On to `CC1CN(C(=O)c2ccc3cc(Oc4ccc(C(F)(F)F)cn4)ccc3n2)CC(C)N1` (centres unmarked) [Example 552, (3,5-dimethylpiperazin-1-yl)(6-{[5-(trifluoromethyl)pyridin-2-yl]oxy}quinolin-2-yl)methanone], for which the IC50 turned out to be 0.615 µM. As to `O=C(c1ccc2cc(Oc3ccc(C(F)(F)F)nc3)ccc2n1)N1CC(N2CCOCC2)C1` [Example 554, [3-(morpholin-4-yl)azetidin-1-yl](6-{[6-(trifluoromethyl)pyridin-3-yl]oxy}quinolin-2-yl)methanone], the IC50 stood at 14.1 µM. Turning to `O=C(NC1CC(F)(F)C1)c1ccc2cc(Oc3ccc(C(F)(F)F)nc3)ccc2n1` [Example 555, N-(3,3-difluorocyclobutyl)-6-{[6-(trifluoromethyl)pyridin-3-yl]oxy}quinoline-2-carboxamide], the IC50 stood at 2.7 µM. Take `CC1(O)CCN(C(=O)CNC(=O)c2ccc3cc(Oc4ccc(C(F)(F)F)cn4)ccc3n2)C1` (centres unmarked) [Example 561, N-[2-(3-hydroxy-3-methylpyrrolidin-1-yl)-2-oxoethyl]-6-{[5-(trifluoromethyl)pyridin-2-yl]oxy}quinoline-2-carboxamide]: the IC50 came out at 3.47 µM. Still for that read-out and setting: the figure for `O=C(NCC(=O)N1C[C@H](O)[C@@H](O)C1)c1ccc2cc(Oc3ccc(C(F)(F)F)cn3)ccc2n1` [Example 562, N-{2-[(3S,4S)-3,4-dihydroxypyrrolidin-1-yl]-2-oxoethyl}-6-{[5-(trifluoromethyl)pyridin-2-yl]oxy}quinoline-2-carboxamide] is above 20 µM; for `O=C(NCC(=O)N1C[C@@H](O)[C@H](O)C1)c1ccc2cc(Oc3ccc(C(F)(F)F)cn3)ccc2n1` [Example 563, N-{2-[(3R,4R)-3,4-dihydroxypyrrolidin-1-yl]-2-oxoethyl}-6-{[5-(trifluoromethyl)pyridin-2-yl]oxy}quinoline-2-carboxamide] it is above 20 µM. The same measure, in the same setting: as for `O=C(NCC(=O)N1C[C@H](O)C[C@H]1CO)c1ccc2cc(Oc3ccc(C(F)(F)F)cn3)ccc2n1` [Example 564, N-{2-[(2S,4R)-4-hydroxy-2-(hydroxymethyl)pyrrolidin-1-yl]-2-oxoethyl}-6-{[5-(trifluoromethyl)pyridin-2-yl]oxy}quinoline-2-carboxamide], the figure is 16.6 µM; as for `O=C(NCC(=O)N1CCC(F)(F)C1)c1ccc2cc(Oc3ccc(C(F)(F)F)cn3)ccc2n1` [Example 565, N-[2-(3,3-difluoropyrrolidin-1-yl)-2-oxoethyl]-6-{[5-(trifluoromethyl)pyridin-2-yl]oxy}quinoline-2-carboxamide], 3.43 µM; as for `O=C(NCC(=O)N1CCS(=O)(=O)C1)c1ccc2cc(Oc3ccc(C(F)(F)F)cn3)ccc2n1` [Example 568, N-[2-(1,1-dioxido-1,3-thiazolidin-3-yl)-2-oxoethyl]-6-{[5-(trifluoromethyl)pyridin-2-yl]oxy}quinoline-2-carboxamide], 3.26 µM. As for `COC1CN(C(=O)CNC(=O)c2ccc3cc(Oc4ccc(C(F)(F)F)cn4)ccc3n2)C1` [Example 569, N-[2-(3-methoxyazetidin-1-yl)-2-oxoethyl]-6-{[5-(trifluoromethyl)pyridin-2-yl]oxy}quinoline-2-carboxamide], the IC50 is 1.21 µM. Still for that read-out and setting: the figure for `O=C(NCC(=O)N1CCC[C@@H]1CO)c1ccc2cc(Oc3ccc(C(F)(F)F)cn3)ccc2n1` [Example 570, N-{2-[(2R)-2-(hydroxymethyl)pyrrolidin-1-yl]-2-oxoethyl}-6-{[5-(trifluoromethyl)pyridin-2-yl]oxy}quinoline-2-carboxamide] is 0.977 µM.

The experiment is the same for the next values; noted with them: read-out: FRET-Membrane Potential Nav1.7 IC50.
In the case of `O=C(c1ccc2cc(Oc3ccc(C(F)(F)F)cn3)ccc2n1)N1CCC(N2CC(F)(F)C2)CC1` [Example 540, [4-(3,3-difluoroazetidin-1-yl)piperidin-1-yl](6-{[5-(trifluoromethyl)pyridin-2-yl]oxy}quinolin-2-yl)methanone], the IC50 turned out to be 4.03 µM. For `O=C(c1ccc2cc(Oc3ccc(C(F)F)cn3)ccc2n1)N1CCN2CC(F)(F)C[C@H]2C1` [Example 542, [(8aS)-7,7-difluorohexahydropyrrolo[1,2-a]pyrazin-2(1H)-yl](6-{[5-(difluoromethyl)pyridin-2-yl]oxy}quinolin-2-yl)methanone], the IC50 was determined as 14.5 µM. For `CC[C@@H]1CN(C(=O)c2ccc3cc(Oc4ccc(C(F)(F)F)nc4)ccc3n2)CCN1` [Example 543, [(3R)-3-ethylpiperazin-1-yl](6-{[6-(trifluoromethyl)pyridin-3-yl]oxy}quinolin-2-yl)methanone], the IC50 was 0.398 µM. Take `O=C(NCCOC(F)(F)F)c1ccc2cc(Oc3ccc(C(F)(F)F)cn3)ccc2n1` [Example 547, N-[2-(trifluoromethoxy)ethyl]-6-{[5-(trifluoromethyl)pyridin-2-yl]oxy}quinoline-2-carboxamide]: the IC50 worked out at 3.29 µM. In the case of `O=C(NCC(O)C(F)(F)F)c1ccc2cc(Oc3ccc(C(F)(F)F)nc3)ccc2n1` (centres unmarked) [Example 551, N-(3,3,3-trifluoro-2-hydroxypropyl)-6-{[6-(trifluoromethyl)pyridin-3-yl]oxy}quinoline-2-carboxamide], the IC50 was 2.77 µM. Regarding `CC[C@H]1CN(C(=O)c2ccc3cc(Oc4ccc(C(F)(F)F)nc4)ccc3n2)CCN1` [Example 553, [(3S)-3-ethylpiperazin-1-yl](6-{[6-(trifluoromethyl)pyridin-3-yl]oxy}quinolin-2-yl)methanone], the IC50 is 0.949 µM. Still for that read-out and setting: as for `O=C1CC(NC(=O)c2ccc3cc(Oc4ccc(C(F)(F)F)nc4)ccc3n2)C1` [Example 556, N-(3-oxocyclobutyl)-6-{[6-(trifluoromethyl)pyridin-3-yl]oxy}quinoline-2-carboxamide], the figure is 2.81 µM. Consider `O=C(c1ccc2cc(Oc3ccc(C(F)(F)F)cn3)ccc2n1)N1CC(N2CCNCC2)C1` [Example 557, [3-(piperazin-1-yl)azetidin-1-yl](6-{[5-(trifluoromethyl)pyridin-2-yl]oxy}quinolin-2-yl)methanone], for which the IC50 was 16.7 µM. Consider `O=C(c1ccc2cc(Oc3ccc(C(F)F)cn3)ccc2n1)N1CCNC2(CC2)C1` [Example 558, 4,7-diazaspiro[2.5]oct-7-yl(6-{[5-(difluoromethyl)pyridin-2-yl]oxy}quinolin-2-yl)methanone], for which the IC50 turned out to be 4.49 µM. `O=C(NCC(=O)N1CC[C@@H](O)C1)c1ccc2cc(Oc3ccc(C(F)(F)F)cn3)ccc2n1` [Example 559, N-{2-[(3R)-3-hydroxypyrrolidin-1-yl]-2-oxoethyl}-6-{[5-(trifluoromethyl)pyridin-2-yl]oxy}quinoline-2-carboxamide]: the IC50 turned out to be 3.02 µM.

On to `O=C(NCC(=O)N1CC[C@H](O)C1)c1ccc2cc(Oc3ccc(C(F)(F)F)cn3)ccc2n1` [Example 560, N-{2-[(3S)-3-hydroxypyrrolidin-1-yl]-2-oxoethyl}-6-{[5-(trifluoromethyl)pyridin-2-yl]oxy}quinoline-2-carboxamide], for which the IC50 was determined as 2.87 µM. With `O=C(NCC(=O)N1CC(O)C1)c1ccc2cc(Oc3ccc(C(F)(F)F)cn3)ccc2n1` [Example 566, N-[2-(3-hydroxyazetidin-1-yl)-2-oxoethyl]-6-{[5-(trifluoromethyl)pyridin-2-yl]oxy}quinoline-2-carboxamide], the IC50 was 2.37 µM. Regarding `CC1(O)CN(C(=O)CNC(=O)c2ccc3cc(Oc4ccc(C(F)(F)F)cn4)ccc3n2)C1` [Example 567, N-[2-(3-hydroxy-3-methylazetidin-1-yl)-2-oxoethyl]-6-{[5-(trifluoromethyl)pyridin-2-yl]oxy}quinoline-2-carboxamide], the IC50 is 3.28 µM.
